{"source": "patent US9127045B2", "about": "“Method of inhibiting bacterial growth and biofilm formation with natural quorum sensing peptides” (UNIVERSITY OF SOUTHERN CALIFORNIA, priority 2005, dated 2015)", "key": {"[1]": {"test_system": "GTFB expression in the wild-type S. mutans", "experiment": "Western blot of GTFB expression after addition of CSP to cultures", "type": "cell-based", "settings": "CSP added to fresh cultures at time of dilution, 1 to 8 mcg/mL; FIG. 7 panel 1", "method": "(§1) For the Western blotting, the bacteria were incubated to the desired optical density, subjected to the freeze-thaw cycle and mixed with the sample loading buffer. The samples were heated at 100° C. for 15 minutes and subjected to the PAGE. The number of cells per lane of the gel was kept constant at 10^8 cells. The western blotting was performed in accordance with a standard procedure (Sambrook, J. and Russel D. W. Molecular Cloning, a laboratory manual, 3rd ed. Cold Spring Harbor Laboratory Press, NY, 2001). Briefly, after PAGE the samples were transferred onto the nitrocellulose membrane and the latter subjected to the standard ELISA procedure. The anti-GTFB mouse monoclonal antibody was previously characterized (Fukushima, K., Okada, T., Ochiai, K., Infection and Immunity 61:323-328 (1993), incorporated herein by reference). The secondary antibody (HRP-linked goat anti-mouse) and the detection reagents were purchased from Cell Signaling Technology (Beverly, Mass.).\n(§2) Synthetic CSP was dissolved in water to the concentration of 1 mg/mL as described in Li, Y-H et al., J. of Bact., 183:897-908 (2001). […]\n(§3) A Western blot analysis was performed to determine the effect of CSP on the level of GTFB expression. […] As a control, the same blot was analyzed with antibody specific to FTF, where it was observed that CSP has no effect on FTF expression (FIG. 7, panel 2)."}, "FTF expression": {"test_system": "FTF expression", "experiment": "Western blot of FTF expression (control) after addition of CSP", "type": "cell-based, S. mutans", "settings": "same blot, antibody specific to FTF; FIG. 7 panel 2", "method": "as §1, §2, §3"}, "gtfB gene of S. mutans": {"test_system": "gtfB gene of S. mutans", "experiment": "Transcriptional fusion assay (gtfB promoter-luciferase)", "type": "cell-based", "description": "The fusion constructs and the transcription assay were previously described (Goodman, S. D. and Gao, Q., Plasmid 43:85-98 (2000)). Briefly, the constructs comprised the upstream regions of the gtfB and gtfC genes fused to the promoterless coding sequence of the firefly luciferase gene and inserted into the plasmid vector pVA838, a shuttle plasmid capable of propagating in both E. coli and S. mutans marked with erythromycin resistance. The plasmids were introduced into S. mutans GS5 by electroporation and the resulting erythromycin resistant strains were grown in liquid cultures and collected at various optical densities. The reporter gene (luciferase) expression was detected by measuring luminescence upon the addition of luciferin (the substrate for luciferase), see Goodman, S. D. and Gao Q. Plasmid 42:154-157 (1999), incorporated herein by reference.\nas §2\nThe transcriptional fusion assay was performed to determine whether CSP inhibits the expression of the gtfB gene of S. mutans. […] When the expression peaked at the end of the lag phase prior to the exponential growth, the cells were challenged with increasing concentrations of CSP for an incubation period of 10 minutes and assessed for luminescence, the measure of reporter gene expression. […]"}, "S. mutans": {"test_system": "S. mutans", "experiment": "In vitro attachment assay to a smooth surface (Petri dish) with sucrose", "type": "cell-based", "settings": "CSP at 8 µg/mL for 10 minutes prior to one hour incubation on Petri dishes with sucrose; without CSP up to 51%; FIG. 9", "method": "The bacteria were grown in liquid cultures to the desired optical density. 20 ml of the cultures were then transferred into Petri dishes and sucrose added to the final concentration of 2%. The incubation was resumed for one hour, after which the liquid fraction was withdrawn and the fresh medium was added into which the layer of attached cells was scraped. The percentage of the attached bacteria was determined as the ratio of the optical densities of the attached to the total (a sum of attached and unattached) bacteria.\nSynthetic CSP was dissolved in water to the concentration of 1 mg/mL as described in Li, Y-H et al., J. of Bact., 183:897-908 (2001). The cultures were grown in Todd Hewitt Broth (THB) supplemented with 5% horse serum. CSP was added to the cultures at the time of diluting the overnight culture (time zero of the culture growth) to a designated concentration between 1 and 8 mcg/mL. The incubation then continued up to the optical density where the expression of GTF is maximal (OD 650=0.1). The cultures where then collected and used in Western blotting with anti-glucosyltransferase (gtf) antibody. […]\nAn in vitro assay was performed to determine whether CSP can inhibit the attachment of S. mutans to a smooth surface. When sucrose was added to the medium, the wild-type S. mutans readily attached to the surface of a Petri dish. […]"}, "[2]": {"test_system": "S. mutans wild-type strains UA140 and UA159", "experiment": "Growth inhibition of S. mutans culture by CSP pulse (96-well plate, cell density)", "type": "cell-based", "method": "Previously, it was assumed that quorum sensing may be an on/off type of switching event wherein when the quorum sensing molecule reaches a certain threshold, a new behavior is […] and vice versa. The inventors have unexpectedly discovered that the QS regulated gene expression is not an all-or-nothing type of system, but actually has a dose-dependent response. […] At a 100-fold higher concentration (400 μM), CSP inhibits the growth of a S. mutans culture by 50%.\nThe experiment was performed in a 96-well plate with triplicate wells for each treatment. Cell density was measured by using a plate reader (BioRad). The experiment was repeated three times. Numbers represent the average of the triplicate samples from one representative experiment. Variations between experiments were within 20%.\nThese experiments were designed to mimic the conditions of the dental hygiene regimen. Specifically, the bacteria were “pulsed” with CSP. The peptide was added for a mere 10 minutes, washed away and the incubation continued in the fresh medium. In this set-up the inhibitory effect persisted for a long time and became undetectable only after 16 hours of the culture growth. Competition experiments have also shown that a mere 3-hour advantage is sufficient to ensure that a resident species in a biofilm will out compete the newcomer."}}, "note": "Ends that are not written are not given here.", "data": [{"sequence": "SGSLSTFFRLFNRSFTQALGK [CSP]", "values": [{"measurement": "peak expression of GTFB (Western blot)", "setting": "[1]", "value": "lowered proportionally to the amount of peptide added"}, {"measurement": "FTF expression (Western blot)", "setting": "FTF expression", "value": "no effect"}, {"measurement": "inhibition of the gtf genes", "setting": "gtfB gene of S. mutans; CSP 8 μg/ml (4 μM)", "value": "desired inhibition of the gtf genes"}, {"measurement": "gtfB reporter gene expression (luminescence)", "setting": "gtfB gene of S. mutans; increasing concentrations of CSP, 10 minutes incubation at peak expression, FIG. 8", "value": "increasing concentrations of CSP increased the magnitude of repression"}, {"measurement": "bacterial cells localized to the attached layer", "setting": "S. mutans", "value": "less than 8%"}, {"measurement": "inhibition of growth of S. mutans culture", "setting": "[2]; CSP 400 μM, 10 minute pulse, FIG. 12", "value": 50, "unit": "%"}, {"measurement": "effect on cell division and viability", "setting": "[2]; CSP 1.6 mM, 10 minute pulse, FIG. 12", "value": "cell division stops and cells begin to die"}, {"measurement": "time of culture growth after which the inhibitory effect became undetectable", "setting": "[2]; CSP added for 10 minutes, washed away, incubation in fresh medium", "value": 16, "unit": "h"}]}]}
